Test results published in US8604206B2, “Compositions for preventing and/or treating degenerative disorders of the central nervous system” (Amicus Therapeutics, Inc., priority 2009, dated 2013).
Read-outs that look alike come from different tables or passages of the source.

What was measured:
[1] = target: recombinant human GCase (rhGCase; Cerezyme®) (Homo sapiens (Human), UniProt P04062, R534H); assay: In vitro enzyme inhibition assay (4-MU-β-D-Glc substrate), inhibition constants; format: biochemical
Protocol: The binding affinity (defined here by Ki binding constant) of GCase for novel compounds of the present invention were empirically determined using enzyme inhibition assays. In brief, the enzyme inhibition assays used monitored the ability of a test compound to bind and prevent the hydrolysis of a fluorogenic substrate in a concentration-dependent mariner. Specifically, the enzyme activity of recombinant human GCase (rhGCase; Cerezyme®, Genzyme Corp.) was measured using the 4-methylumbelliferyl-β-D-glucopyranoside (4-MU-β-D-Glc) fluorogenic substrate in the absence or in the presence of varying amounts of each test compound. […] The enzyme inhibition assays were performed at both pH 7.0 (endoplasmic reticulum pH) and at pH 5.2 (lysosomal pH) to gain insight into the binding affinity (i.e., potency) of compounds for GCase in the endoplasmic reticulum and lysososome.
Various concentrations of test compounds were prepared in buffer “M” consisting of 50 mM sodium phosphate buffer with 0.25% sodium taurocholate at pH 7.0 and pH 5.2. Enzyme (Cerezyme®, a recombinant form of the human enzyme β-glucocerebrosidase) was also diluted in the same buffer “M” at pH 7.0 and pH 5.2. […] Five microliters of diluted enzyme was added to 15 μl of the various inhibitor concentrations or buffer “M” alone and incubated at 37° C. for 1 hour with 50 μl of the substrate preparation to assess β-glucosidase activity at pH 7.0 and pH 5.2. […] Fluorescence was measured on a plate reader for 1 sec/well using 355 nm excitation and 460 nm emission.

[2] = Compound concentration in tissue of mice of the GCase enhancement study; format: in vivo, mouse; settings: 9 doses, 24-hour washout
Protocol: The dosing solutions were prepared in water. Compounds were administered over 2 weeks as follows: week 1, Mon-Fri (On), Sat-Sun (Off); week 2, Mon-Thu (On); necropsy on Friday. Thus, a total of 9 doses (dosing solutions prepared fresh every day) were given to each mouse, with a 24-hour washout between the last dose and necropsy.
Plasma was collected by spinning blood at 2700 g for 10 minutes at 4° C. Liver, spleen, lung, and brain tissues were removed, washed in cold PBS, blotted dry, flash frozen on dry ice, and stored at −80° C. until analysis. GCase levels were measured by homogenizing approximately 50 mg tissue in 500 μL McIlvane (MI) buffer (100 mM sodium citrate, 200 mM sodium phosphate dibasic, 0.25% sodium taurocholate, and 0.1% Triton X-100, pH 5.2) at pH 5.2 for 3-5 seconds on ice with a micro homogenizer. Homogenates were then incubated at room temperature without and with 2.5 mM conduritol-B-epoxide (CBE) for 30 min. Finally, 3.7 mM 4-methylumbeliferryl-β-glucoside (4-MUG) substrate was added and incubated at 37° C. for 60 min. […] Fluorescence was measured on a plate reader for 1 sec/well using 355 nm excitation and 460 nm emission. Total protein was determined in lysates using the MicroBCA kit according to the manufacturer's instructions. A 4-methylumbelliferone (4-MU) standard curve ranging from 1.0 nM to 50 μM was run in parallel for conversion of raw fluorescence data to absolute GCase activity (in the presence and absence of CBE) and expressed as nanomoles of 4-MU released per milligram of protein per hour (nmol/mg protein/hr). GCase levels and protein levels were calculated using Microsoft Excel (Redmond, Wash.) and GraphPad Prism version 4.02.

Rat pharmacokinetics = format: in vivo; settings: male, Sprague-Dawley, plasma; for Cmax: read-out: Cmax
Protocol: Pharmacokinetic (PK) data was obtained in rats to assess the bioavailability of test compound. In particular, the following PK parameters were calculated: bioavailability as measured by area under the Concentration/Time curve (AUC), fraction of dose available (% F; further defined below), clearance (CL), volume of distribution (Vd), and half-life (t½). […] Three rats were used per dosing group. Blood was collected over a 24-hr period. The time points for blood collection after intravenous administration were: 0, 2.5, 5, 10, 15, 30, 45 min, 1, 2, 4, 8, 12, and 24 hrs; time points for blood collection after p.o. administrations were: 0, 5, 15, 30, 45 min, 1, 2, 3, 4, 8, 12, and 24 hrs. Plasma samples were analyzed for compound levels by LC-MS/MS at PPD. Raw data was analyzed by non-compartmental analysis in Win-nonLin to calculate VD, % F, CL, and t1/2.

[3] = pH 5.2, Cheng-Prusoff from IC50, read-out: Ki (μM) pH 5.2
[4] = pH 5.2, read-out: IC50 (μM) pH 5.2
[5] = pH 5.2, repeated in Table 3A, read-out: Ki pH 5.2
[6] = pH 5.2, repeated in Table 3B, read-out: Ki pH 5.2
[7] = pH 7.0, Cheng-Prusoff from IC50, read-out: Ki (μM) pH 7.0
[8] = pH 7.0, read-out: IC50 (μM) pH 7.0
[9] = IV, 3 mg/kg free base, AUC0-12 hr, read-out: AUClast (hr*ng/ml), AUC0-12 hr
[10] = IV, 3 mg/kg free base, read-out: t1/2 (converted)
[11] = PO, 10 mg/kg free base, read-out: % F
[12] = PO, 10 mg/kg free base, read-out: t1/2 (converted)
[13] = PO, 30 mg/kg free base, AUC0-24 hr, read-out: AUClast (hr*ng/ml), AUC0-24 hr
[14] = PO, 30 mg/kg free base, read-out: % F
[15] = PO, 30 mg/kg free base, read-out: t1/2 (converted)
[16] = PO, 100 mg/kg free base, AUC0-24 hr, read-out: AUClast (hr*ng/ml), AUC0-24 hr
[17] = PO, 100 mg/kg free base, read-out: % F
[18] = PO, 100 mg/kg free base, read-out: t1/2 (converted)
[19] = intravenous, oral, summary of Tables 4A-D, read-out: half-life
[20] = po, summary of Tables 4A-D, read-out: oral bioavailability

Sequence of recombinant human GCase (rhGCase; Cerezyme®) (P04062 40-536 R534H limits assumed): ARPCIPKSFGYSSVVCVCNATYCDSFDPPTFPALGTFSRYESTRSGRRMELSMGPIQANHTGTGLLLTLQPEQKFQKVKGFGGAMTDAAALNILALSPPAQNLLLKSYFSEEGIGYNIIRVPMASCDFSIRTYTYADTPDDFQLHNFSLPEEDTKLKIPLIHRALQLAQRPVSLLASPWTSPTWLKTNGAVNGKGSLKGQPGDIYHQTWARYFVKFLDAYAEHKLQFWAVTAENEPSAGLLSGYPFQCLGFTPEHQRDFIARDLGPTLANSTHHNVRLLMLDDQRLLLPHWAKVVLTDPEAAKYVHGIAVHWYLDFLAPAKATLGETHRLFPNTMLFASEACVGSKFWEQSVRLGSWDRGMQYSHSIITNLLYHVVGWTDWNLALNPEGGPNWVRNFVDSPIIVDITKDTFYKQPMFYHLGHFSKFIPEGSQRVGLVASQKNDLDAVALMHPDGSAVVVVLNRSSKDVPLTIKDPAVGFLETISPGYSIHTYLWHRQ

Ki [1, 3]	IC50 [1, 4]	Ki [1, 5]	Ki [1, 6]	Ki [1, 7]	IC50 [1, 8]	Structure (SMILES)	Compound concentration in tissue ([2]; brain, 10 mg/kg FBE p.o.)	Compound concentration in tissue ([2]; brain, 100 mg/kg FBE p.o.)	Compound concentration in tissue ([2]; spleen, 10 mg/kg FBE p.o.)	Compound concentration in tissue ([2]; spleen, 100 mg/kg FBE p.o.)	Vd (Rat pharmacokinetics; IV, 3 mg/kg free base)	clearance (Rat pharmacokinetics; IV, 3 mg/kg free base)	AUC(0-t) (Rat pharmacokinetics; [9])	Cmax (Rat pharmacokinetics; IV, 3 mg/kg free base)	half-life (Rat pharmacokinetics; [10])	bioavailability (Rat pharmacokinetics; [11])	Cmax (Rat pharmacokinetics; PO, 10 mg/kg free base)	half-life (Rat pharmacokinetics; [12])	AUC(0-t) (Rat pharmacokinetics; [13])	bioavailability (Rat pharmacokinetics; [14])	further results
0.121 ± 0.0026 µM	0.291 ± 0.006 µM	0.121 ± 0.0026 µM	0.121 ± 0.0026 µM	0.031 ± 0.0015 µM	0.06 ± 0.0029 µM	CC[C@@H](F)[C@H]1CNC[C@@H](O)[C@@H]1O.Cl [(3R,4R,5S)-5-((R)-1-fluoropropyl)-piperidine-3,4-diol hydrochloride]	BLQ(2) (BLQ < 2.2 nmol/kg)	38 nmol/kg	21 nmol/kg	60 nmol/kg											
0.273 ± 0.012 µM	0.659 ± 0.028 µM	0.273 ± 0.012 µM	0.273 ± 0.012 µM	0.067 ± 0.005 µM	0.127 ± 0.01 µM	O[C@@H]1[C@@H](Cc2ccccc2)CNC[C@H]1O [(3R,4R,5S)-5-benzyl-piperidine-3,4-diol]					12.6 ± 1.79 L/kg	85.8 mL/min/kg	592 ± 60.9 ng·h/mL	969 ± 104 ng/mL	1.7 ± 1.5 h	61.7 ± 2.4%	641 ± 48.7 ng/mL	3.86 ± 0.6 h	3690 ± 71.5 ng·h/mL	62.3 ± 1.2%	AUC(0-t) (Rat pharmacokinetics; PO, 10 mg/kg free base, AUC0-24 hr, read-out: AUClast (hr*ng/ml), AUC0-24 hr): 1200 ± 46.4 ng·h/mL; Cmax (Rat pharmacokinetics; PO, 30 mg/kg free base): 1700 ± 133 ng/mL; half-life (Rat pharmacokinetics; [15]): 3.8 ± 0.19 h; AUC(0-t) (Rat pharmacokinetics; [16]): 13500 ± 2180 ng·h/mL; bioavailability (Rat pharmacokinetics; [17]): 68.3 ± 10.8%; Cmax (Rat pharmacokinetics; PO, 100 mg/kg free base): 7140 ± 1360 ng/mL; half-life (Rat pharmacokinetics; [18]): 2.9 ± 0.11 h; half-life (Rat pharmacokinetics; [19]): 1 to 4 h; bioavailability (Rat pharmacokinetics; [20]): 50 to 100%
						Cl.O[C@H]1[C@H](O)CNC[C@@H]1C(F)F [Cmpd 6, (3R,4R,5S)-5-(Difluoromethyl)piperidine 3,4-diol Hydrochloride]	55 nmol/kg	301 nmol/kg	100 nmol/kg	435 nmol/kg	2.61 L/kg	25.9 mL/min/kg	2040 ng·h/mL	2320 ng/mL	1.1 h	106%	3360 ng/mL	2.58 h	21700 ng·h/mL	101%	AUC(0-t) (Rat pharmacokinetics; PO, 10 mg/kg free base, AUC0-12 hr, read-out: AUClast (hr*ng/ml), AUC0-12 hr): 6710 ng·h/mL; Cmax (Rat pharmacokinetics; PO, 30 mg/kg free base): 10000 ng/mL; half-life (Rat pharmacokinetics; [15]): 2.75 h; AUC(0-t) (Rat pharmacokinetics; [16]): 79400 ng·h/mL; bioavailability (Rat pharmacokinetics; [17]): 121%; Cmax (Rat pharmacokinetics; PO, 100 mg/kg free base): 33200 ng/mL; half-life (Rat pharmacokinetics; [18]): 2.41 h; half-life (Rat pharmacokinetics; [19]): 1 to 4 h; bioavailability (Rat pharmacokinetics; [20]): 50 to 100%
